Experimental data: article PMC10428205, “Cytotoxicity of Ruthenium(II) Arene Complexes Containing Functionalized Ferrocenyl β-Diketonate Ligands” (Organometallics, 2023)
“And” between values parts separate entries of the source, which are not always exact repeats. Identical values can stand only once. Like-named read-outs stand apart in the source and are kept apart here.

Assays:
HCT116 p53+/+ = assay: 96 h MTT chemosensitivity assay; format: cell-based, human; conditions: for Selectivity index (SI), IC50 ARPE-19 / IC50 HCT116 p53+/+: 96 h, * = minimum value as at least one IC50 > 100; for IC50: 96 h MTT, ± SD, read-out: IC50 against HCT116 p53+/+
Method: (§1) LogP = Log ( [C]final ) Eqn1
(§2) 96 h Chemosensitivity Studies
(§3) In vitro chemosensitivity tests were performed at both the University of Huddersfield and the Institute of Cancer Therapeutics, Bradford, in a sterile Class II Biological Safety Cabinet fitted with a HEPA filtered laminar airflow.
(§4) Cellular assays were conducted against human pancreatic carcinoma (MIA PaCa-2), human colorectal carcinoma p53-wildtype (HCT116 p53+/+), and human non-cancerous epithelial retinal cells (ARPE-19). The ARPE-19 cells were obtained from the American Type Culture Collection and provided by the University of Huddersfield. All cell lines were routinely maintained as monolayer cultures in appropriate complete medium and maintained in either T-25 or T-75 flasks at 37 °C and 5% CO2. MIA PaCa-2 and ARPE-19 cells were cultured in high glucose DMEM-F12 medium containing 10% foetal calf serum, and HCT116 p53+/+ was cultured in RPMI 1640 supplemented with 10% foetal calf serum. All medium was supplemented with sodium pyruvate (1 mM) and L-glutamine (2 mM), and prior to chemosensitivity studies, cell monolayers were passaged using Trypsin-EDTA and diluted to a concentration of 1 x 10^4 cells/mL. All assays were conducted using 96-well plates, in which 100 mL of the 1 x 10^4 cells/mL cell suspension was added to each well and incubated for 24 h at 37 °C and 5% CO2. After 24 h, 100 mL of drug dilutions (fresh 100 mM stock solutions in DMSO) in media were added to the plates and then incubated for a further 96 h at 37°C and 5% CO2 (48 h + 48 h recovery period were used for the shorter exposures with MIA PaCa-2 cells only). After 96 h, 20 mL MTT (3-(4,5-dimethylthiazol-2-yl)-2,5-diphenyltetrazolium bromide, 5 mg/mL) was added to each well and incubated for 3 h at 37 °C and 5% CO2. All solutions were then removed from the 96-well plates via pipette and 150 mL of DMSO added to each well to dissolve the purple formazan crystals. After mixing well, the absorbance of each well was measured at 540 nm using a ThermoFisher Multiskan FC spectrophotometer microplate reader. Using the blank and 100% cell controls, the % cell viability was determined [(abs. of compound containing wells – abs. media wells)/(abs. 100% cell suspension well control)] and from this the % cell death (100%- % cell viability) was calculated. On a logarithmic scale, the percentage cell death was plotted against the concentration of compound, and from this the half maximal inhibitory concentration (IC50) value was determined. Each of the experiments were performed in triplicate with mean values being stated as the IC50 ± Standard Deviation (SD). […]
(§5) All assays were conducted in triplicate.

MIA PaCa-2 [1] = format: cell-based; conditions: for Selectivity index (SI), IC50 ARPE-19 / IC50 MIA PaCa-2: 96 h, * = minimum value as at least one IC50 > 100; for IC50: 96 h MTT, normoxic, ± SD, read-out: IC50 against MIA PaCa-2
Method: as §1, §2, §3
Cellular assays were conducted against human pancreatic carcinoma (MIA PaCa-2), human colorectal carcinoma p53-wildtype (HCT116 p53+/+), and human non-cancerous epithelial retinal cells (ARPE-19). […]
were obtained from the American Type Culture Collection and provided by the University of Huddersfield. All cell lines were routinely maintained as monolayer cultures in appropriate complete medium and maintained in either […]
T-25 or T-75 flasks at 37 °C and 5% CO2.
10% foetal calf serum. All medium was supplemented with sodium pyruvate (1 mM) and L-glutamine (2 mM), and prior to chemosensitivity studies, cell monolayers were passaged using Trypsin-EDTA and diluted to a […]
cells/mL cell suspension was added to each well and incubated for 24 h at 37 °C and 5% CO2. After 24 h, 100 mL of drug dilutions (fresh 100 mM stock solutions in DMSO) in media were added to the plates and then incubated for a further 96 h at 37°C and 5% CO2 (48 h + 48 h recovery period were used for the shorter exposures with MIA PaCa-2 cells only). After 96 h, 20 mL MTT (3-(4,5-dimethylthiazol-2-yl)-2,5-diphenyltetrazolium bromide, 5 mg/mL) was added to each well and incubated for 3 h at 37 °C and 5% CO2. All solutions were then removed from the 96-well plates via pipette and […] of DMSO added to each well to dissolve the purple formazan […]
FC spectrophotometer microplate reader. Using the blank and 100% cell controls, the % cell viability was determined [(abs. of compound containing wells – abs. media wells)/(abs. 100% cell suspension well control)] and from this the % cell death (100%- % cell viability) was calculated. On a logarithmic scale, the percentage cell death was plotted against the concentration of compound, and from this the half maximal inhibitory concentration (IC50) value was determined. Each of the experiments were performed in triplicate with mean values being stated as the IC50 ± Standard Deviation (SD). […]

ARPE-19 = assay: 96 h MTT chemosensitivity assay, normal cells; format: cell-based, human; conditions: normal retinal epithelial cells, ± SD, read-out: IC50 against ARPE-19
Method: as §1, §2, §3
as §4, with “After 24 h, 100 mL of drug dilutions (fresh 100 mM stock solutions in DMSO) in media were added to the plates and then incubated for a further 96 h at 37°C and 5% CO2 (48 h + 48 h recovery period were used for the shorter exposures with MIA PaCa-2 cells only). After 96 h, 20 mL MTT (3-(4,5-dimethylthiazol-2-yl)-2,5-diphenyltetrazolium bromide, 5 mg/mL) was added to each well and incubated for 3 h at 37 °C and 5% CO2. All solutions were then removed from the 96-well plates via pipette and 150 mL of DMSO added to each well to dissolve the purple formazan crystals.” left out, “determined.” for “determined. Each of the experiments were performed in triplicate with mean values being stated as the IC50 ± Standard Deviation (SD).”

MIA PaCa-2 [2] = assay: 24 and 48 h chemosensitivity (MTT, with recovery period); format: cell-based, human
Method: as §1, §2, §3
Cellular assays were conducted against human pancreatic carcinoma (MIA PaCa-2), human colorectal carcinoma p53-wildtype (HCT116 p53+/+), and human non-cancerous epithelial retinal cells (ARPE-19). The ARPE-19 cells were obtained from the American Type Culture Collection and provided by the University of Huddersfield. All cell lines were routinely maintained as monolayer cultures in appropriate complete medium and maintained in either T-25 or T-75 flasks at 37 °C and 5% CO2. MIA PaCa-2 and ARPE-19 cells were cultured in high glucose DMEM-F12 medium containing 10% foetal calf serum, and HCT116 p53+/+ was cultured in RPMI 1640 supplemented with 10% foetal calf serum. All medium was supplemented with sodium pyruvate (1 mM) and L-glutamine (2 mM), and prior to chemosensitivity studies, cell monolayers were passaged using Trypsin-EDTA and diluted to a concentration of 1 x 10^4 cells/mL. All assays were conducted using 96-well plates, in which 100 mL of the 1 x 10^4 cells/mL cell suspension was added to each well and incubated for 24 h at 37 °C and 5% CO2. After 24 h, 100 mL of drug dilutions (fresh 100 mM stock solutions in DMSO) in media were added to the plates and then incubated for a further 96 h at 37°C and 5% CO2 (48 h + 48 h recovery period were used for the shorter exposures with MIA PaCa-2 cells only). After 96 h, 20 mL MTT (3-(4,5-dimethylthiazol-2-yl)-2,5-diphenyltetrazolium bromide, 5 mg/mL) was added to each well and incubated for 3 h at 37 °C and 5% CO2. All solutions were then removed from the 96-well plates via pipette and […] of DMSO added to each well to dissolve the purple formazan crystals. After mixing well, the absorbance of each well was measured at 540 nm using a ThermoFisher Multiskan FC spectrophotometer microplate reader. Using the blank and 100% cell controls, the % cell viability was determined [(abs. of compound containing wells – abs. media wells)/(abs. 100% cell suspension well control)] and from this the % cell death (100%- % cell viability) was calculated. On a logarithmic scale, the percentage cell death was plotted against the concentration of compound, and from this the half maximal inhibitory concentration (IC50) value was determined. Each of the experiments were performed in triplicate with mean values being stated as the IC50 ± Standard Deviation (SD).
24 and 48 h Chemosensitivity Studies
The same experimental protocol described for the 96 h MTT assay was used, and the MIA PaCa-2 cells were incubated for either 24 or 48 h, with a 72 or 48 h recovery period respectively. […]
as §5

MIA PaCa-2 [3] = assay: Chemosensitivity under hypoxic conditions (0.1% O2, 96 h MTT); format: cell-based, human; conditions: MIA PaCa-2, 0.1% O2, 96 h MTT
Method: as §1, §2, §3
as §4, with “After 24 h, 100 mL of drug dilutions (fresh 100 mM stock solutions in DMSO) in media were added to the plates and then incubated for a further 96 h at 37°C and 5% CO2 (48 h + 48 h recovery period were used for the shorter exposures with MIA PaCa-2 cells only). After 96 h, 20 mL MTT (3-(4,5-dimethylthiazol-2-yl)-2,5-diphenyltetrazolium bromide, 5 mg/mL) was added to each well and incubated for 3 h at 37 °C and 5% CO2. All solutions were then removed from the 96-well plates via pipette and 150 mL of DMSO added to each well to dissolve the purple formazan crystals.” left out, “determined.” for “determined. Each of the experiments were performed in triplicate with mean values being stated as the IC50 ± Standard Deviation (SD).”

MIA PaCa-2 [4] = conditions: read-out: IC50 against MIA PaCa-2 (previously reported analogue); cited from earlier work

With `N.N.O=C([O-])C1(C(=O)[O-])CCC1.[Pt+2]` [CARB, carboplatin, reference compound] the “Selectivity index (SI), IC50 ARPE-19 / IC50 HCT116 p53+/+” value (HCT116 p53+/+) was 2.4, the IC50 (HCT116 p53+/+) was 32 ± 11 µM and the “Selectivity index (SI), IC50 ARPE-19 / IC50 MIA PaCa-2” value (MIA PaCa-2 [1]) was 2.2. The IC50 (MIA PaCa-2 [1]) was 36 ± 3 µM and the IC50 (ARPE-19) was 77 ± 10 µM.

With `O=C(C=C(O)c1ccco1)[c-]1cccc1.[Fe+2].c1cc[cH-]c1` [Complex L4] the “E0′ (Fc*/Fc*+)” value (Cyclic voltammetry; 0.1 M TBAPF6 in acetonitrile, vs SCE, Fc/Fc+ = 0.40 V internal standard) was 0.63 V, the “EP Red” value (Cyclic voltammetry; irreversible reduction, vs SCE) was “–1.70 V” and the “E0’ (Fc*/Fc*+) at 0.05 V/s” value (Cyclic voltammetry; scan speed 0.05 V/s) was 0.64 V. For the same compound, the “E0’ (Fc*/Fc*+) at 0.10 V/s” value (Cyclic voltammetry; scan speed 0.10 V/s) was 0.63 V, the “E0’ (Fc*/Fc*+) at 0.25 V/s” value (Cyclic voltammetry; scan speed 0.25 V/s) was 0.63 V and the IC50 (MIA PaCa-2 [1]) was 42.1 ± 0.8 µM. It also gave an IC50 (MIA PaCa-2 [2]; MIA PaCa-2, 24 h exposure + 72 h recovery, read-out: IC50 values ± SD, 24 h) greater than 100 µM and an IC50 (MIA PaCa-2 [2]; MIA PaCa-2, 48 h exposure + 48 h recovery, read-out: IC50 values ± SD, 48 h) of 43 ± 1 µM.

In the case of `O=C1[O][Pt]2([NH][C@@H]3CCCC[C@H]3[NH]2)[O]C1=O` [OXA, oxaliplatin, reference compound], the “Selectivity index (SI), IC50 ARPE-19 / IC50 HCT116 p53+/+” value (HCT116 p53+/+) is reported as 3.2, the IC50 (HCT116 p53+/+) is reported as 0.9 ± 0.1 µM and the “Selectivity index (SI), IC50 ARPE-19 / IC50 MIA PaCa-2” value (MIA PaCa-2 [1]) is reported as 0.5. The IC50 (MIA PaCa-2 [1]) was 6 ± 1 µM, the IC50 (ARPE-19) was 3 µM and 6 µM and the “IC50 under hypoxic conditions” value (MIA PaCa-2 [3]) was “decrease in cytotoxicity”.

For [(bpy)2(Fc-acac)Ru][PF6] [Figure 1F], the IC50 (MIA PaCa-2 [4]) is given as 0.11 ± 0.01 µM.
